The values below are quoted from earlier work in patent US20040097481A1, “Water-soluble mesoporphyrin compounds and methods of preparation” (priority 2002, published 2004).

The conditions of the data set: product of the above-referenced known preparation methods.

The structures appear in SMILES notation.

Take `CCC1=C(C)c2cc3[n-]c(cc4[n-]c(cc5nc(cc1n2)C(C)=C5CC)c(C)c4CCC(=O)O)c(CCC(=O)O)c3C.[Cl-].[Cl-].[Sn+4]` [stannsoporfin, Tin (IV) mesoporphyrin IX chloride]: the Water solubility entry is on record as “non-water soluble”.
